Results from patent US20120021434A1, “METHOD FOR TREATING B CELL REGULATED AUTOIMMUNE DISORDERS” (Synta Pharmaceuticals Corp., priority 2005, published 2012).

Legend:
c-Rel = target: T1, c-Rel (Homo sapiens, UniProt Q04864); experiment: Western blot of THP-1 nuclear extracts: c-Rel; assay type: cell-based; details: of the transcription factors analyzed
T1 construct: a western blot assay of THP1 nuclear c-Rel, p50 and p65 proteins was carried out; endogenous in cells; host or cells: THP-1; Jurkat
T1 sequence (Q04864 1-619): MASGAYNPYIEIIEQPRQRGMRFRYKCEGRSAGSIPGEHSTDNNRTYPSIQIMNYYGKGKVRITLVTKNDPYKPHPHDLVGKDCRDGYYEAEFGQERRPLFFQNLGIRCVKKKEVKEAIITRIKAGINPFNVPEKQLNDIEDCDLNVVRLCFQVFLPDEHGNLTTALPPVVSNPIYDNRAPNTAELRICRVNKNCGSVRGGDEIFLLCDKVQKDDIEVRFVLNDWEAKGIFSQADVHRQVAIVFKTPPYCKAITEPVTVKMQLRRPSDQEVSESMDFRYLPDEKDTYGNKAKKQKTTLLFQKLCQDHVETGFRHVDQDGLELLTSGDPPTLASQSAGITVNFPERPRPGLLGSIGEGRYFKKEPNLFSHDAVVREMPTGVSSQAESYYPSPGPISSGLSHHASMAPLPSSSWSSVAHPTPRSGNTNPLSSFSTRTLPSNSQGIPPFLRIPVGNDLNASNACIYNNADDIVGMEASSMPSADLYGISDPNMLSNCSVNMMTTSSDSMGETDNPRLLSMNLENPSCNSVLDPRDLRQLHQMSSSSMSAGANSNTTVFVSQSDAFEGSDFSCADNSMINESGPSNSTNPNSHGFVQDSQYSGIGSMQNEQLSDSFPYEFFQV
Description: The THP-1 cell, Jurkat cell and RAW264.7 cell line were obtained from American Type Culture Collection (Manassas, Va.). The THP-1 Jurkat cells were cultured in RPMI 1640 (ATCC, Manassas, Va.), supplemented with 10% FCS (ATCC, Manassas, Va.), and 1% penicillin/Streptomycin (Gibco-BRL, New York, N.Y.). The RAW264.7 cells were cultured in DMEM (ATCC, Manassas, Va.) supplemented with 10% FCS (ATCC, Manassas, Va.), and 1% penicillin/Streptomycin (Gibco-BRL, New York, N.Y.). The cells were stimulated with human or murine recombinant IFNγ (100 ng/ml) for 10 h followed by LPS (1 μg/ml) or SAC (0.025%) CpG ([…]) in the presence or absence of Compound 50 at different concentrations for an additional incubation.
THP-1 cells were suspended in 20 volumes of buffer A containing 10 mM KCl, 10 mM HEPES (pH 7.9), 1 mM MgCl2, 1 mM dithiothreitol (DTT), 0.1% Nonidet p40 (NP-40), and 0.5 mM phenylmethylsulfonyl fluoride (PMSF) and homogenized and centrifuged at 10,000 rpm at 4C afor 5 min. Nuclear pellets were then suspended in buffer C containing 400 mM NaCl, 20 mM HEPES 9, pH 7.9), 15 mM MgCl2, 0.2 mM EDTA, 1 mM DTT, 25% glycerol, 1 mM PMSF, and 10 ug of leupeptin, 20 ug of pepstatin, and 10 ug/ml antipain, incubated for 30 min at 4C, and centrifuged at 14,000 rpm for 20 min. The supernatants were dialyzed against buffer D containing 100 mM NaCl, 20 mM HEPES (pH 7.9), 20% glycerol, 1 mM PMSF, and 1 mM DTT.
The 10% SDS Polyacrylamide gels (Inveitrogen) were transferred to Pure Nitrocellulose membrane (BioRed, Hercules, Calif.). The membranes were blocked with 5% milk in TBST buffer and incubated with anti-c-Rel, anti-p65, anti-p50, anti-ICSBP or anti-PU-1 antibody (all the antibodies were purchased from Santa Cruz) at a dilution of 1:500 for 1 h at room temperature or overnight at 4C. […]
Of the transcription factors that have been analyzed, two factors, ICSBP and c-Rel, seem to be affected by Compound 4/Compound 50 treatment. […]

ICSBP = ICSBP expression (Western blot); assay type: cell-based; details: of the transcription factors analyzed
Description: The 10% SDS Polyacrylamide gels (Inveitrogen) were transferred to Pure Nitrocellulose membrane (BioRed, Hercules, Calif.). The membranes were blocked with 5% milk in TBST buffer and incubated with anti-c-Rel, anti-p65, anti-p50, anti-ICSBP or anti-PU-1 antibody (all the antibodies were purchased from Santa Cruz) at a dilution of 1:500 for 1 h at room temperature or overnight at 4C. The membranes were washed and incubated with Horseradish Peroxidase-conjugated anti-rabbit IgG or anti-mouse IgG (Amersham, England) at a dilution of 1:2000 at room temperature for 1 h.
Of the transcription factors that have been analyzed, two factors, ICSBP and c-Rel, seem to be affected by Compound 4/Compound 50 treatment. ICSBP binds indirectly to the Ets-2 site. The primary NF-κB trans-activator for IL-12 is the c-Rel/p50 heterodimer. Other dimers (p65/p50 and p50/p50) either lack activity or have inhibitory functions. Thus, c-Rel plays a role in IL-12 transcription as a result of both activation through NF-κB and its interaction with ICSBP. […] The membranes were blocked with 5% milk in TBST buffer and then incubated with anti-c-Rel, anti-p65, anti-p50, anti-ICSBP or anti-PU-1 antibody (all the antibodies were purchased from Santa Cruz) at a dilution of 1:500 for 1 h at room temperature or overnight at 4° C. The membranes were washed and incubated with Horseradish Peroxidase-conjugated anti-rabbit IgG or anti-mouse IgG (Amersham, England) at a dilution of 1:2000 at room temperature for 1 h.
ICSBP, whose expression was reduced by Compound 50, was over-expressed using co-transfection with the IL-12 promoter-Luc report system. The over-expression construct of ICSBP was generated by PCR from cDNA of human PBMC using primers as follow: ICSBP-exp-F: 5′-[…]-3′ (SEQ ID NO:1) and ICSBP-exp-R: 5′-[…]-3′ (SEQ ID NO:2), the resulting PCR products was ligated to pCI vector (Promega).

SMILES: C(=N\Nc1nc(OCCc2ccccn2)nc(N2CCOCC2)n1)/c1c[nH]c2ccccc12 [Compound 4]
- transcription factor c-Rel affected by treatment (c-Rel): affected
- transcription factor ICSBP affected by treatment (ICSBP): affected
